Experimental data published in publication PMC3431598, “Phylogenetic and Transcriptomic Analysis of Chemosensory Receptors in a Pair of Divergent Ant Species Reveals Sex-Specific Signatures of Odor Coding” (PLoS Genetics, 2012).

Target: T1, HsOrco (with AgOR10) (Harpegnathos saltator, UniProt E2BJ30)
T1 construct: gene Orco; full-length CDS from worker antennal cDNA; cRNA in Xenopus oocytes with mosquito AgOR10; with Odorant receptor 10 (Anopheles gambiae)
T1 sequence (E2BJ30 1-479): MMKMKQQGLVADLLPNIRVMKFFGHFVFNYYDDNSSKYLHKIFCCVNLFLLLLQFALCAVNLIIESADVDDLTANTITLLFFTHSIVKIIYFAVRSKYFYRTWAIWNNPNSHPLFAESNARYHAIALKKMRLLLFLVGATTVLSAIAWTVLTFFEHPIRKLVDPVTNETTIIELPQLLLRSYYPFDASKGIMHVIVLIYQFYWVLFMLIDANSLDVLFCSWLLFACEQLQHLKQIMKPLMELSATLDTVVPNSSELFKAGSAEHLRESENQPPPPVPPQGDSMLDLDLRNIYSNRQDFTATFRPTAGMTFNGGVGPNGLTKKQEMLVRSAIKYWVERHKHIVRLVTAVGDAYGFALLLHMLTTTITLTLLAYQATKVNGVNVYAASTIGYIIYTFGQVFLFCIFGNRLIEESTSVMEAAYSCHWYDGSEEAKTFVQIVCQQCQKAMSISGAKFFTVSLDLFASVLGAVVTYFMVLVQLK
T1 sequence (B5U0U7 1-375 partner): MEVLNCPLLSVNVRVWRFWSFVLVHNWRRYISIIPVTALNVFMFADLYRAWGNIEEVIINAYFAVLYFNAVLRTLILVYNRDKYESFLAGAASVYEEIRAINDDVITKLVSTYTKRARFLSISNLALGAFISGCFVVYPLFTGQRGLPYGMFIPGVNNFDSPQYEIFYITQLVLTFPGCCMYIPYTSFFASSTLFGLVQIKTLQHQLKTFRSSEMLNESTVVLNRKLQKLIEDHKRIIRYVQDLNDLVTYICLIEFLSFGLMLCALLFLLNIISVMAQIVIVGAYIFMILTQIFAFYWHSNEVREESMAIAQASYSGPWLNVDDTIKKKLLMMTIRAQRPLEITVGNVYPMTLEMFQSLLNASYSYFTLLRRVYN
Test: two-electrode voltage clamp, Xenopus oocytes
Type: cell-based
Conditions: Orco agonist; AgOR10 co-expressed; -80 mV

Q: Which “two-electrode voltage clamp, Xenopus oocytes” value does the source give for `CCc1ccc(NC(=O)CSc2nnc(-c3cccnc3)n2CC)cc1` [VUAA1] here?
A: Its value is “produced responses to VUAA1 (an agonist for Orco)”.
